Experimental data taken from the supplement of paper PMC10307832.

Tests used:
Assay in all cases: relative viability (nuclei count vs DMSO), 5 days (fraction); higher = more cells survive
Avagacestat + Crizotinib = compound: NC(=O)[C@@H](CCC(F)(F)F)N(Cc1ccc(-c2ncon2)cc1F)S(=O)(=O)c1ccc(Cl)cc1 [Avagacestat] + C[C@@H](Oc1cc(-c2cnn(C3CCNCC3)c2)cnc1N)c1c(Cl)ccc(F)c1Cl [Crizotinib] (partner 1 µM)
Method in brief: (§1)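 Dosing by pin tool came one day after lung cancer cell lines were seeded in 1536-well plates, using either one drug or a fixed anchor-drug dose plus five library-drug doses (not always all listed) in √10 steps. After 5 days, nuclei were counted on 4× images. Relative viability is treated-well nuclei count divided by vehicle-well nuclei count, and values are medians of duplicate plates.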

Avagacestat + Lapatinib = compound: NC(=O)[C@@H](CCC(F)(F)F)N(Cc1ccc(-c2ncon2)cc1F)S(=O)(=O)c1ccc(Cl)cc1 [Avagacestat] + CS(=O)(=O)CCNCc1ccc(-c2ccc3ncnc(Nc4ccc(OCc5cccc(F)c5)c(Cl)c4)c3c2)o1 [Lapatinib] (partner 2 µM)
Method in brief: as §1

Avagacestat + Dasatinib = compound: NC(=O)[C@@H](CCC(F)(F)F)N(Cc1ccc(-c2ncon2)cc1F)S(=O)(=O)c1ccc(Cl)cc1 [Avagacestat] + Cc1nc(Nc2ncc(C(=O)Nc3c(C)cccc3Cl)s2)cc(N2CCN(CCO)CC2)n1 [Dasatinib] (partner 0.075 µM)
Method in brief: as §1

Avagacestat + Pemetrexed = compound: NC(=O)[C@@H](CCC(F)(F)F)N(Cc1ccc(-c2ncon2)cc1F)S(=O)(=O)c1ccc(Cl)cc1 [Avagacestat] + Nc1nc2[nH]cc(CCc3ccc(C(=O)N[C@@H](CCC(=O)O)C(=O)O)cc3)c2c(=O)[nH]1 [Pemetrexed] (partner 0.2 µM)
Method in brief: as §1

Cell Line	relative viability (Avagacestat + Crizotinib; first compound 0.08 µM)	relative viability (Avagacestat + Crizotinib; first compound 0.253 µM)	relative viability (Avagacestat + Crizotinib; first compound 0.8 µM)	relative viability (Avagacestat + Crizotinib; first compound 2.53 µM)	relative viability (Avagacestat + Crizotinib; first compound 8 µM)	relative viability (Avagacestat + Lapatinib; first compound 0.08 µM)	relative viability (Avagacestat + Lapatinib; first compound 0.253 µM)	relative viability (Avagacestat + Lapatinib; first compound 0.8 µM)	relative viability (Avagacestat + Lapatinib; first compound 2.53 µM)	relative viability (Avagacestat + Lapatinib; first compound 8 µM)	relative viability (Avagacestat + Dasatinib; first compound 0.08 µM)	relative viability (Avagacestat + Dasatinib; first compound 0.253 µM)	relative viability (Avagacestat + Dasatinib; first compound 0.8 µM)	relative viability (Avagacestat + Dasatinib; first compound 2.53 µM)	relative viability (Avagacestat + Dasatinib; first compound 8 µM)	relative viability (Avagacestat + Pemetrexed; first compound 0.08 µM)	relative viability (Avagacestat + Pemetrexed; first compound 0.253 µM)	relative viability (Avagacestat + Pemetrexed; first compound 0.8 µM)	relative viability (Avagacestat + Pemetrexed; first compound 2.53 µM)	relative viability (Avagacestat + Pemetrexed; first compound 8 µM)
NCI-H358	0.555	0.579	0.457	0.609	0.545	0.418	0.438	0.571	0.469	0.427	0.163	0.159	0.164	0.155	0.148	0.168	0.197	0.18	0.172	0.168
HCC-15	0.871	0.911	0.695	0.715	0.779	0.95	1.04	1.12	0.879	0.778	0.685	0.642	0.652	0.608	0.539	0.227	0.22	0.232	0.212	0.194
NCI-H3122	0.318	0.287	0.291	0.289	0.288	1.1	1.1	1.03	1.05	0.99	0.944	0.759	0.843	0.815	0.774	0.216	0.238	0.208	0.195	0.205
CAL-12T	0.607	0.52	0.717	0.627	0.679	0.836	0.859	0.833	0.747	0.699	0.376	0.414	0.418	0.386	0.253	1.7	1.49	1.67	1.42	1.25
COR-L23	0.678	0.642	0.552	0.643	0.441	1.26	1.1	1.3	0.95	0.4	0.507	0.471	0.781	0.457	0.359	0.178	0.197	0.207	0.214	0.201
NCI-H1792	1.42	1.33	1.45	0.992	0.805	1.26	0.681	1.76	0.915	0.758	1.33	–	0.666	–	0.706	1.54	1.08	1.28	0.818	0.451
NCI-H1563	0.883	0.751	0.83	0.801	0.708	0.959	0.806	0.951	0.828	0.925	0.53	0.455	0.484	0.453	0.442	0.811	0.664	0.82	0.711	0.683
NCI-H2087	1.18	1.01	0.906	1.07	0.843	1.33	1.04	1.05	1.25	1.06	0.893	1.18	0.994	0.916	0.686	0.658	0.651	0.741	0.632	0.662
